Structures are written as SMILES.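 Growth conditions: 96-well plates. Treatment: test compound, 48 hours, 5 concentrations. Analysis: linear interpolation between bracketing concentrations; unreached endpoints set to highest concentration. The concentration for full growth arrest is given as TGI.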

The test system of the first assay is COLO 205 colon. The assay is described as follows: growth of human tumour cells (NCI), 48 h.
For `N#C/C(=C1\SC(N=Nc2ccc(Cl)cc2)C(=O)N1c1ccccc1)c1nc2ccccc2[nH]1` (centres undefined), the TGI was above 100 µM.

Take `CCOC(=O)c1c(SCCN2CCOCC2)n(-c2ccccc2)c(=S)n(-c2ccccc2)c1=O`: the TGI is above 100 µM.

`O=C(NN1C(=O)CSC1c1cccc(F)c1)c1ccncc1` (centres undefined) showed a TGI above 100 µM.

The compound `c1ccc2[nH]c(CNc3ccc(C4C[Se]N=N4)cc3)nc2c1` (centres undefined) displayed a TGI above 100 µM.

Consider `Cc1c(-c2ccccc2)[nH]n(C2=NCCN2)c1=O`, for which the TGI was above 100 µM.

With `Cc1ccc2oc(=O)c(-c3ccccc3)nc2c1`, the TGI came out at 71.1 µM.

Take `O=C(O)/C=C\C(=O)Nc1ccc(S(=O)(=O)c2ccc(NC(=O)/C=C\C(=O)O)cc2)cc1`: the TGI was above 100 µM.

On to `S=C1NC2=C(CSC/C2=C\c2ccccc2)C(c2ccccc2)N1` (centres undefined), for which the TGI was above 100 µM.

`COc1ccc(/C=N/n2c(C)nc3c(sc(=S)n3-c3ccccc3)c2=O)cc1`: the TGI is above 100 µM.

`CSc1nc2c(ncn2C2OC(CO)C(O)C(O)C2O)c(=O)[nH]1` (centres undefined) displayed a TGI above 100 µM.

As for `Nc1ccccc1C(=O)C(Br)C(Br)c1ccc2c(c1)OCO2` (centres undefined), the TGI is 27.4 µM.

In turn, `CCCCCCCCCCCC1CC(=O)NCCCN(C)CCCCN(C)CCCN1C` (centres undefined) came in with a TGI of 3.03 µM.

`COc1cc(C2c3cc4c(cc3[C@@H](Nc3ccc5c(c3)OCO5)C3COC(=O)[C@H]23)OCO4)cc(OC)c1O` (some centres undefined) came in with a TGI of 7.41 µM.

For the next assay, the system named is KM12 colon. The assay is described as follows: growth of human tumour cells (NCI), 48 h.
Consider `CCOC(=O)c1c(SCCN2CCOCC2)n(-c2ccccc2)c(=S)n(-c2ccccc2)c1=O`, for which the TGI was above 100 µM.

Turning to `O=C(NN1C(=O)CSC1c1cccc(F)c1)c1ccncc1` (centres undefined), the TGI is above 100 µM.

For the compound `c1ccc2[nH]c(CNc3ccc(C4C[Se]N=N4)cc3)nc2c1` (centres undefined), the TGI is above 100 µM.

Compound `Cc1c(-c2ccccc2)[nH]n(C2=NCCN2)c1=O` came in with a TGI above 100 µM.

As for `Cc1ccc2oc(=O)c(-c3ccccc3)nc2c1`, the TGI worked out at 50.4 µM.

Compound `O=C(O)/C=C\C(=O)Nc1ccc(S(=O)(=O)c2ccc(NC(=O)/C=C\C(=O)O)cc2)cc1` gave a TGI above 100 µM.

In turn, `S=C1NC2=C(CSC/C2=C\c2ccccc2)C(c2ccccc2)N1` (centres undefined) returned a TGI above 100 µM.

`COc1ccc(/C=N/n2c(C)nc3c(sc(=S)n3-c3ccccc3)c2=O)cc1` returned a TGI above 100 µM.

Regarding `CSc1nc2c(ncn2C2OC(CO)C(O)C(O)C2O)c(=O)[nH]1` (centres undefined), the TGI is above 100 µM.

`Nc1ccccc1C(=O)C(Br)C(Br)c1ccc2c(c1)OCO2` (centres undefined) showed a TGI of 33.8 µM.

The compound `CCCCCCCCCCCC1CC(=O)NCCCN(C)CCCCN(C)CCCN1C` (centres undefined) displayed a TGI of 2.96 µM.

`COc1cc(C2c3cc4c(cc3[C@@H](Nc3ccc5c(c3)OCO5)C3COC(=O)[C@H]23)OCO4)cc(OC)c1O` (some centres undefined) returned a TGI of 6.91 µM.

The next assay deals with MOLT-4 leukemia. Put plainly: growth of human tumour cells (NCI), 48 h.
In the case of `CCOC(=O)c1c(SCCN2CCOCC2)n(-c2ccccc2)c(=S)n(-c2ccccc2)c1=O`, the TGI stood at 92.5 µM.

On to `O=C(NN1C(=O)CSC1c1cccc(F)c1)c1ccncc1` (centres undefined), for which the TGI was above 100 µM.

`c1ccc2[nH]c(CNc3ccc(C4C[Se]N=N4)cc3)nc2c1` (centres undefined) yielded a TGI of 40.5 µM.

Turning to `Cc1c(-c2ccccc2)[nH]n(C2=NCCN2)c1=O`, the TGI is above 100 µM.

For `Cc1ccc2oc(=O)c(-c3ccccc3)nc2c1`, the TGI is above 100 µM.

On to `O=C(O)/C=C\C(=O)Nc1ccc(S(=O)(=O)c2ccc(NC(=O)/C=C\C(=O)O)cc2)cc1`, for which the TGI is above 100 µM.

For the compound `S=C1NC2=C(CSC/C2=C\c2ccccc2)C(c2ccccc2)N1` (centres undefined), the TGI was above 100 µM.

For `COc1ccc(/C=N/n2c(C)nc3c(sc(=S)n3-c3ccccc3)c2=O)cc1`, the TGI is above 100 µM.

Compound `CSc1nc2c(ncn2C2OC(CO)C(O)C(O)C2O)c(=O)[nH]1` (centres undefined) displayed a TGI above 100 µM.

Compound `Nc1ccccc1C(=O)C(Br)C(Br)c1ccc2c(c1)OCO2` (centres undefined) registered a TGI above 100 µM.

In turn, `CCCCCCCCCCCC1CC(=O)NCCCN(C)CCCCN(C)CCCN1C` (centres undefined) returned a TGI of 7.73 µM.

In the case of `COc1cc(C2c3cc4c(cc3[C@@H](Nc3ccc5c(c3)OCO5)C3COC(=O)[C@H]23)OCO4)cc(OC)c1O` (some centres undefined), the TGI is 0.236 µM.

Another assay has as its system SK-MEL-28 melanoma. Put plainly: growth of human tumour cells (NCI), 48 h.
`N#C/C(=C1\SC(N=Nc2ccc(Cl)cc2)C(=O)N1c1ccccc1)c1nc2ccccc2[nH]1` (centres undefined) displayed a TGI above 100 µM.

In the case of `CCOC(=O)c1c(SCCN2CCOCC2)n(-c2ccccc2)c(=S)n(-c2ccccc2)c1=O`, the TGI is 53.8 µM.

For `O=C(NN1C(=O)CSC1c1cccc(F)c1)c1ccncc1` (centres undefined), the TGI is above 100 µM.

Turning to `c1ccc2[nH]c(CNc3ccc(C4C[Se]N=N4)cc3)nc2c1` (centres undefined), the TGI was above 100 µM.

`Cc1ccc2oc(=O)c(-c3ccccc3)nc2c1` returned a TGI above 100 µM.

Take `O=C(O)/C=C\C(=O)Nc1ccc(S(=O)(=O)c2ccc(NC(=O)/C=C\C(=O)O)cc2)cc1`: the TGI was above 100 µM.

In turn, `S=C1NC2=C(CSC/C2=C\c2ccccc2)C(c2ccccc2)N1` (centres undefined) came in with a TGI above 100 µM.

`COc1ccc(/C=N/n2c(C)nc3c(sc(=S)n3-c3ccccc3)c2=O)cc1` came in with a TGI above 100 µM.

The compound `CSc1nc2c(ncn2C2OC(CO)C(O)C(O)C2O)c(=O)[nH]1` (centres undefined) showed a TGI above 100 µM.

Take `Nc1ccccc1C(=O)C(Br)C(Br)c1ccc2c(c1)OCO2` (centres undefined): the TGI was determined as 70.4 µM.

`CCCCCCCCCCCC1CC(=O)NCCCN(C)CCCCN(C)CCCN1C` (centres undefined) registered a TGI of 3.09 µM.

`COc1cc(C2c3cc4c(cc3[C@@H](Nc3ccc5c(c3)OCO5)C3COC(=O)[C@H]23)OCO4)cc(OC)c1O` (some centres undefined): the TGI was above 95.3 µM.
